Laboratory results reported in US10457709B2, “Antimicrobial peptides, their variants and uses” (priority 2015, dated 2019).
Converted amounts (≈) assume the structure as drawn. Square brackets hold non-standard residues; d marks the D form. Peptide text beside a SMILES is read from it.

Key:
[1] = tested on: C. glabrata clinical strains; test: MIC, clinical yeast strains; type: cell-based, Candida glabrata; design: unit: µg/ml
Protocol: (§1) Minimum inhibition concentrations (MICs) were determined against Escherichia coli (ATCC 25922), Staphylococcus aureus (ATCC 25923), Klebsiella pneumoniae (ATCC 10031) and Pseudomonas aeruginosa (ATCC 27853). Also clinical strains of E. coli, K. pneumoniae, E. cloacae, P. aeruginosa, Serratia marcescens, Proteus mirabilis, S. pneumoniae, Acinetobacter baumannii, A. johnsonii and S. aureus were used for MICs assays. Additionally, clinical strains of yeast including Candida albicans, C. glabrata, C. parapsilosis and C. quillermondiae were used. The susceptibility of these microorganisms to Chain peptides were determined using micro broth dilution assay. Colonies of the respective microorganism from Muller Hinton (MH) agar plates incubated overnight were suspended in MH broth media and final concentration of microorganism was adjusted to 5.0×10^5 cfu/ml. An aliquot of 10 μl of each Chain peptide, or gentamicin, tetracycline as reference antibiotics were added in differing concentrations along with 90 μl of bacterial suspension to 96 well polypropylene plates and incubated at 37° C. for 20 to 24 hours. Concentrations of Chain peptides and reference antibiotics ranged from 0.125 to 128 μg/ml and the MICs were recorded as the lowest concentration with no visual growth of bacteria. Similarly, antifungal MICs were tested in Potato dextrose broth.
(§2) Clinical strains of yeasts including Candida albicans, C. glabrata, C. parapsilosis and C. quillermondiae were also tested with the 12 Chain peptides. The minimum inhibitory concentration (MICs) varied between these peptides and are presented in Tables 4a, 4b, 4c and 5a, 5b, 5c. Peptides Chain 105, 201 and 308 are broad spectrum antimicrobials with MICs between 0.5-32 μg/ml against all the bacteria and yeasts tested, except Serratia marcescens and Proteus mirabilis, against which the MICs were between 64-128 μg/ml. Peptide Chain 306 has narrow spectrum activity against E. coli at 1 μg/ml and for the rest of the bacterial strains at >32 μg/ml (FIG. 10c).

[2] = tested on: Staphylococcus aureus clinical strains; type: cell-based; settings: clinical strains
Protocol: as §1, §2

[3] = tested on: Proteus mirabilis clinical strains; type: cell-based; settings: clinical strains
Protocol: as §1, §2

[4] = tested on: Acinetobacter baumannii clinical strains; type: cell-based; settings: clinical strains
Protocol: as §1, §2

[5] = tested on: Streptococcus pneumoniae clinical strains; type: cell-based; settings: clinical strains
Protocol: as §1, §2

[6] = tested on: Serratia marcescens clinical strains; type: cell-based; settings: clinical strains
Protocol: as §1, §2

[7] = tested on: Enterobacter cloacae clinical strains; type: cell-based; settings: clinical strains
Protocol: as §1, §2

[8] = tested on: C. quillermondiae clinical strains; test: MIC, clinical yeast strains; type: cell-based, Candida quillermondiae; design: unit: μg/ml; settings: C. quillermondiae clinical yeast strain 1
Protocol: as §1, §2

[9] = tested on: Pseudomonas aeruginosa clinical strains; type: cell-based; settings: clinical strains
Protocol: as §1, §2

[10] = tested on: Acinetobacter johnsonii clinical strains; type: cell-based; settings: clinical strain 1; D-form peptides; MH broth-cation adjusted, 0.02% BSA, 0.2% acetic acid
Protocol: as §1, §2

[11] = tested on: Escherichia coli clinical strains; type: cell-based; settings: clinical strains
Protocol: as §1, §2

[12] = tested on: Klebsiella pneumoniae clinical strains; type: cell-based; settings: clinical strains
Protocol: as §1, §2

[13] = tested on: C. parapsilosis clinical strains; test: MIC, clinical yeast strains; type: cell-based, Candida parapsilosis; design: unit: µg/ml
Protocol: as §1, §2

[14] = tested on: Candida albicans clinical strains; test: MIC, clinical yeast strains; type: cell-based; design: unit: μg/ml
Protocol: as §1, §2

Work on `CC[C@@H](C)[C@@H](NC(=O)[C@@H](CCSC)NC(=O)[C@@H](C)NC(=O)[C@@H](CCCNC(=N)N)NC(=O)[C@@H](Cc1c[nH]c2ccccc12)NC(=O)[C@@H](CCCCN)NC(=O)[C@H](N)CCCNC(=N)N)C(=O)N[C@H](CCCNC(=N)N)C(=O)N[C@H](CC(C)C)C(=O)N[C@H](Cc1c[nH]cn1)C(=O)N[C@H](C)C(=O)N[C@H](CCCCN)C(=O)N[C@H](CCCNC(=N)N)C(=O)N[C@H](CC(C)C)C(=O)N[C@H](CCCNC(=N)N)C(=O)N[C@H](CCCCN)C(=O)O` [Chain104D] (H-[dR][dK][dW][dR][dA][dM][dI][dR][dL][dH][dA][dK][dR][dL][dR][dK]-OH) yielded a Minimum inhibitory concentration ([1]; C. glabrata clinical yeast strain 1) of 8, a Minimum inhibitory concentration ([1]; C. glabrata clinical yeast strain 2) of 8 and a Minimum inhibitory concentration ([1]; C. glabrata clinical yeast strain 3) of 8. For the same compound, the Minimum inhibitory concentration ([1]; C. glabrata clinical yeast strain 4) was 16, the “MIC, Staphylococcus aureus strain 1” value [2] was 4 µg/mL (≈ 1.89 µM) and the “MIC, Staphylococcus aureus strain 2” value [2] was 2 µg/mL (≈ 0.944 µM). For the same compound, the “MIC, Staphylococcus aureus strain 3” value [2] was 4 µg/mL (≈ 1.89 µM), the “MIC, Staphylococcus aureus strain 4” value [2] was 2 µg/mL (≈ 0.944 µM) and the “MIC, Staphylococcus aureus strain 5” value [2] was 4 µg/mL (≈ 1.89 µM). For the same compound, the “MIC, Proteus mirabilis strain 1” value [3] was over 128 µg/mL, the “MIC, Proteus mirabilis strain 2” value [3] was 32 µg/mL (≈ 15.1 µM) and the “MIC, Proteus mirabilis strain 3” value [3] was 128 µg/mL (≈ 60.4 µM). The “MIC, Proteus mirabilis strain 4” value [3] was over 128 µg/mL, the “MIC, Proteus mirabilis strain 5” value [3] was over 128 µg/mL and the “MIC, Acinetobacter baumannii strain 1” value [4] was 16 µg/mL (≈ 7.55 µM). For the same compound, the “MIC, Acinetobacter baumannii strain 2” value [4] was 8 µg/mL (≈ 3.77 µM), the “MIC, Acinetobacter baumannii strain 3” value [4] was 8 µg/mL (≈ 3.77 µM) and the “MIC, Acinetobacter baumannii strain 4” value [4] was 4 µg/mL (≈ 1.89 µM). For the same compound, the “MIC, Acinetobacter baumannii strain 5” value [4] was 8 µg/mL (≈ 3.77 µM), the “MIC, Streptococcus pneumoniae strain 1” value [5] was 4 µg/mL (≈ 1.89 µM) and the “MIC, Streptococcus pneumoniae strain 2” value [5] was 2 µg/mL (≈ 0.944 µM). For the same compound, the “MIC, Streptococcus pneumoniae strain 3” value [5] was 1 µg/mL (≈ 0.472 µM), the “MIC, Streptococcus pneumoniae strain 4” value [5] was 4 µg/mL (≈ 1.89 µM) and the “MIC, Streptococcus pneumoniae strain 5” value [5] was 1 µg/mL (≈ 0.472 µM). The “MIC, Serratia marcescens strain 1” value [6] was over 128 µg/mL, the “MIC, Serratia marcescens strain 2” value [6] was over 128 µg/mL and the “MIC, Serratia marcescens strain 3” value [6] was over 128 µg/mL. The “MIC, Serratia marcescens strain 4” value [6] was over 128 µg/mL, the “MIC, Serratia marcescens strain 5” value [6] was 128 µg/mL (≈ 60.4 µM) and the “MIC, Enterobacter cloacae strain 1” value [7] was 4 µg/mL (≈ 1.89 µM). The “MIC, Enterobacter cloacae strain 2” value [7] was 4 µg/mL (≈ 1.89 µM), the “MIC, Enterobacter cloacae strain 3” value [7] was 8 µg/mL (≈ 3.77 µM) and the “MIC, Enterobacter cloacae strain 4” value [7] was 4 µg/mL (≈ 1.89 µM). For the same compound, the “MIC, Enterobacter cloacae strain 5” value [7] was 2 µg/mL (≈ 0.944 µM), the Minimum inhibitory concentration [8] was 4 and the “MIC, Pseudomonas aeruginosa strain 1” value [9] was 4 µg/mL (≈ 1.89 µM). For the same compound, the “MIC, Pseudomonas aeruginosa strain 2” value [9] was 2 µg/mL (≈ 0.944 µM), the “MIC, Pseudomonas aeruginosa strain 3” value [9] was 4 µg/mL (≈ 1.89 µM) and the “MIC, Pseudomonas aeruginosa strain 4” value [9] was 2 µg/mL (≈ 0.944 µM). For the same compound, the “MIC, Pseudomonas aeruginosa strain 5” value [9] was 1 µg/mL (≈ 0.472 µM), the “MIC, Acinetobacter johnsonii strain 1” value [10] was 8 µg/mL (≈ 3.77 µM) and the “MIC, Escherichia coli strain 1” value [11] was 4 µg/mL (≈ 1.89 µM). For the same compound, the “MIC, Escherichia coli strain 2” value [11] was 4 µg/mL (≈ 1.89 µM), the “MIC, Escherichia coli strain 3” value [11] was 4 µg/mL (≈ 1.89 µM) and the “MIC, Escherichia coli strain 4” value [11] was 4 µg/mL (≈ 1.89 µM). For the same compound, the “MIC, Escherichia coli strain 5” value [11] was 4 µg/mL (≈ 1.89 µM), the “MIC, Klebsiella pneumoniae strain 1” value [12] was 8 µg/mL (≈ 3.77 µM) and the “MIC, Klebsiella pneumoniae strain 2” value [12] was 4 µg/mL (≈ 1.89 µM). For the same compound, the “MIC, Klebsiella pneumoniae strain 3” value [12] was 8 µg/mL (≈ 3.77 µM), the “MIC, Klebsiella pneumoniae strain 4” value [12] was 16 µg/mL (≈ 7.55 µM) and the “MIC, Klebsiella pneumoniae strain 5” value [12] was 4 µg/mL (≈ 1.89 µM). The Minimum inhibitory concentration ([13]; C. parapsilosis clinical yeast strain 1) was 4, the Minimum inhibitory concentration ([13]; C. parapsilosis clinical yeast strain 2) was 4 and the Minimum inhibitory concentration ([13]; C. parapsilosis clinical yeast strain 3) was 4. For the same compound, the Minimum inhibitory concentration ([13]; C. parapsilosis clinical yeast strain 4) was 2, the Minimum inhibitory concentration ([14]; Candida albicans clinical yeast strain 1) was 8 and the Minimum inhibitory concentration ([14]; Candida albicans clinical yeast strain 2) was 8. For the same compound, the Minimum inhibitory concentration ([14]; Candida albicans clinical yeast strain 3) was 8, the Minimum inhibitory concentration ([14]; Candida albicans clinical yeast strain 4) was 8 and the Minimum inhibitory concentration ([14]; Candida albicans clinical yeast strain 5) was 8.
